Experimental data published in ChEMBL document CHEMBL5532655, “Discovery of (R)-4-(8-methoxy-2-methyl-1-(1-phenylethy)-1H-imidazo[4,5-c]quinnolin-7-yl)-3,5-dimethylisoxazole as a potent and selective BET inhibitor for treatment of acute myeloid leukemia (AML) guided by FEP calculation” (Eur J Med Chem, 2024).

How the values were obtained:
[1] = target: CREB-binding protein (Homo sapiens) (UniProt Q92793); assay: Binding affinity to CREBBP (unknown origin) using biotinylated histone peptide H4 as substrate at 1 uM incubated for 2 hrs by AlphaScreen assay relative to control
Chain of CREB-binding protein (Homo sapiens) (Q92793 2-2442 limits assumed): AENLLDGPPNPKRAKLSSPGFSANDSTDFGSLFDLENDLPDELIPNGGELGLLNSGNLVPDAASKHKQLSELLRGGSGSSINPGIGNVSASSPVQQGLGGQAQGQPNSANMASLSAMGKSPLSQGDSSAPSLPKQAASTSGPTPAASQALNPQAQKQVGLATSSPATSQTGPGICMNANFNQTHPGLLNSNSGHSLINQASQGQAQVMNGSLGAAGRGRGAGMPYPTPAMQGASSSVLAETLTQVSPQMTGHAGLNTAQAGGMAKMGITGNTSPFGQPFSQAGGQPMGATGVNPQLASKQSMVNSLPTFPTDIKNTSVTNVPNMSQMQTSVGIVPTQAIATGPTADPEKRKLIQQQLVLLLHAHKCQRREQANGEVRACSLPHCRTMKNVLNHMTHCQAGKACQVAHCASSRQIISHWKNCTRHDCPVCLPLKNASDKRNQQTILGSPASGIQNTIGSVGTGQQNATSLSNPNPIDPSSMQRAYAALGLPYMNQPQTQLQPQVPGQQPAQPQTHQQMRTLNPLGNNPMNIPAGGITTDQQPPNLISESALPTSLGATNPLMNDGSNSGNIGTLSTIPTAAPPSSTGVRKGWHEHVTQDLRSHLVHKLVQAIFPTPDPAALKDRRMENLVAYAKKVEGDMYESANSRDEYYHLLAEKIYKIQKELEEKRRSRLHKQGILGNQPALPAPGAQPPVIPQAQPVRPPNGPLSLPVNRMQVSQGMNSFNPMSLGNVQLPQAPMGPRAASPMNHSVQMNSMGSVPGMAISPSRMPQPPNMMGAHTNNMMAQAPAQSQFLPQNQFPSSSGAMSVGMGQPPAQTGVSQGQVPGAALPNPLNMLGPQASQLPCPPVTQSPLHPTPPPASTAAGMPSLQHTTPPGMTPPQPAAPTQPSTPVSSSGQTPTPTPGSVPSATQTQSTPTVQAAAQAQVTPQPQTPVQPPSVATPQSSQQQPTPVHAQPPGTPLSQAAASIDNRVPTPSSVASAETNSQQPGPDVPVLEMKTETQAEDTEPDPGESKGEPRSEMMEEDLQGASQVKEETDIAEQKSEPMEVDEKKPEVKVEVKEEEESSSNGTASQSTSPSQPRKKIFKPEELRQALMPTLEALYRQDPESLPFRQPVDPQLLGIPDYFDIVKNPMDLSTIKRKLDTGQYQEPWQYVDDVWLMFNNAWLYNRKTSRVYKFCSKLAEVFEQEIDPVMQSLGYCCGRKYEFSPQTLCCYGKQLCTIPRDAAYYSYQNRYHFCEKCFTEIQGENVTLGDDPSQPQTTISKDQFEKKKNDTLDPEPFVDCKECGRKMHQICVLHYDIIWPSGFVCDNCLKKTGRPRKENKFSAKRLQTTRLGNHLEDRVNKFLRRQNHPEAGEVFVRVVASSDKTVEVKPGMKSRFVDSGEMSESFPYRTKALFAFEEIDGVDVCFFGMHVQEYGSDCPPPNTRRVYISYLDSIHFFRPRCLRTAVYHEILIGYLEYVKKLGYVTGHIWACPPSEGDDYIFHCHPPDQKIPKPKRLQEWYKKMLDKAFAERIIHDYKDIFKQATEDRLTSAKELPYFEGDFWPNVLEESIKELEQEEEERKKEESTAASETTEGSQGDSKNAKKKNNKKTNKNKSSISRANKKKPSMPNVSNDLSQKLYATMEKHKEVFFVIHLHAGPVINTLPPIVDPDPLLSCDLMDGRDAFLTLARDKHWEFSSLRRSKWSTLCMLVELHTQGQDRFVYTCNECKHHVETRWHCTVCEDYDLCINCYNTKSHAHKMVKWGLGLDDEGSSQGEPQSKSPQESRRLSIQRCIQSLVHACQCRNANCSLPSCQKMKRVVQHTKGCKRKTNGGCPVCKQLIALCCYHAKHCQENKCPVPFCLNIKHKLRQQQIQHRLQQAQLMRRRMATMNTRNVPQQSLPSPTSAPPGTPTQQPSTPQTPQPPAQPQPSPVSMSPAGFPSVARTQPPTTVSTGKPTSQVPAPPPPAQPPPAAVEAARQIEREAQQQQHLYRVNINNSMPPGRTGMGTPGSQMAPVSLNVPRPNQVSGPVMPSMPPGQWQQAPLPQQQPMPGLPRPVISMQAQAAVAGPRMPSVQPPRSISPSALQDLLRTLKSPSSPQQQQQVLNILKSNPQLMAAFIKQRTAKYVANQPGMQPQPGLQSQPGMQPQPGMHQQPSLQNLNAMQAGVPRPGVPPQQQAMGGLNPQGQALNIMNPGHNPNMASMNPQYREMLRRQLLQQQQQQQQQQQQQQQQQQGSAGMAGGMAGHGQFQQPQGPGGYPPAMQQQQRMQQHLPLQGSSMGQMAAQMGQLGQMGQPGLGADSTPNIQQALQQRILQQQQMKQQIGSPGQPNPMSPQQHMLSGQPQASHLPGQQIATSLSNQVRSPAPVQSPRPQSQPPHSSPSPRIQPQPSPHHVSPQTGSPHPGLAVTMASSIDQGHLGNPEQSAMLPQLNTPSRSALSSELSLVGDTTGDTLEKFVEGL

Peregrin (Homo sapiens) [2] = target: T1, Peregrin (Homo sapiens) (UniProt P55201); assay: Binding affinity to BRPF1 (unknown origin) using biotinylated histone peptide H4 as substrate at 1 uM incubated for 2 hrs by AlphaScreen assay relative to control
T1 sequence (whole entry): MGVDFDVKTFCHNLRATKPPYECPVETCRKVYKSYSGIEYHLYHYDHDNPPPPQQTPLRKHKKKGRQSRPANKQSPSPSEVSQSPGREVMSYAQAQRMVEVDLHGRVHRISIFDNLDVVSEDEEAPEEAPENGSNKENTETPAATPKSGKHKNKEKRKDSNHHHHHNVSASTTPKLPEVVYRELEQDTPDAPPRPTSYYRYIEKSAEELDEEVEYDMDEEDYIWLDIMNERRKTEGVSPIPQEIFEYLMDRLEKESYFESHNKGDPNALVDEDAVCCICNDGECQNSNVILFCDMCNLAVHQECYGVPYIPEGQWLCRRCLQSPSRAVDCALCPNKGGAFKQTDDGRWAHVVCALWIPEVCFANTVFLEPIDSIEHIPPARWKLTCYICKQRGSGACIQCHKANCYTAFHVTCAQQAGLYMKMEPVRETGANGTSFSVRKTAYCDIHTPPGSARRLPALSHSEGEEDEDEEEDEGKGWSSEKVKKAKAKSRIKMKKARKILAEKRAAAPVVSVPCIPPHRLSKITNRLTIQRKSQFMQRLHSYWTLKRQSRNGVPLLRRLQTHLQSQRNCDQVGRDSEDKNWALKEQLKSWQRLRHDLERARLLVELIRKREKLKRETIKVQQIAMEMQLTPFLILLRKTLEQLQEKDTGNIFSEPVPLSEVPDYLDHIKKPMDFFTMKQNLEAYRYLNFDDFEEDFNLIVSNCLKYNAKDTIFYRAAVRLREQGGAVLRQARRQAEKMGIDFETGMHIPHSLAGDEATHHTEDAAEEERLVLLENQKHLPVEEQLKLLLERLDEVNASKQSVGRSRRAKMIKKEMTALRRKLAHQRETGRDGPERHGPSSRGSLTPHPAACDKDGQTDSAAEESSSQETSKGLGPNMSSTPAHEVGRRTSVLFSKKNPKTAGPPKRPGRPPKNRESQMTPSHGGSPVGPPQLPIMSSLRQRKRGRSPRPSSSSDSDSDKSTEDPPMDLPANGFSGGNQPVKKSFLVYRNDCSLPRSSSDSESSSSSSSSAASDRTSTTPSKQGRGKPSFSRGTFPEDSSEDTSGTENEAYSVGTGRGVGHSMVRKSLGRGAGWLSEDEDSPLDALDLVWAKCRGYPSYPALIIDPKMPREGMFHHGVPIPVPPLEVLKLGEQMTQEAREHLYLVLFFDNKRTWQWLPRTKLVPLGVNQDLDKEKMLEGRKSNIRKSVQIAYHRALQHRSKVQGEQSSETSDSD

[3] = target: Bromodomain adjacent to zinc finger domain protein 2B (Homo sapiens) (UniProt Q9UIF8); assay: Binding affinity to BAZ2B (unknown origin) using biotinylated histone peptide H4 as substrate at 1 uM incubated for 2 hrs by AlphaScreen assay relative to control
Chain of Bromodomain adjacent to zinc finger domain protein 2B (Homo sapiens) (Q9UIF8 whole entry, the tested form may be a part): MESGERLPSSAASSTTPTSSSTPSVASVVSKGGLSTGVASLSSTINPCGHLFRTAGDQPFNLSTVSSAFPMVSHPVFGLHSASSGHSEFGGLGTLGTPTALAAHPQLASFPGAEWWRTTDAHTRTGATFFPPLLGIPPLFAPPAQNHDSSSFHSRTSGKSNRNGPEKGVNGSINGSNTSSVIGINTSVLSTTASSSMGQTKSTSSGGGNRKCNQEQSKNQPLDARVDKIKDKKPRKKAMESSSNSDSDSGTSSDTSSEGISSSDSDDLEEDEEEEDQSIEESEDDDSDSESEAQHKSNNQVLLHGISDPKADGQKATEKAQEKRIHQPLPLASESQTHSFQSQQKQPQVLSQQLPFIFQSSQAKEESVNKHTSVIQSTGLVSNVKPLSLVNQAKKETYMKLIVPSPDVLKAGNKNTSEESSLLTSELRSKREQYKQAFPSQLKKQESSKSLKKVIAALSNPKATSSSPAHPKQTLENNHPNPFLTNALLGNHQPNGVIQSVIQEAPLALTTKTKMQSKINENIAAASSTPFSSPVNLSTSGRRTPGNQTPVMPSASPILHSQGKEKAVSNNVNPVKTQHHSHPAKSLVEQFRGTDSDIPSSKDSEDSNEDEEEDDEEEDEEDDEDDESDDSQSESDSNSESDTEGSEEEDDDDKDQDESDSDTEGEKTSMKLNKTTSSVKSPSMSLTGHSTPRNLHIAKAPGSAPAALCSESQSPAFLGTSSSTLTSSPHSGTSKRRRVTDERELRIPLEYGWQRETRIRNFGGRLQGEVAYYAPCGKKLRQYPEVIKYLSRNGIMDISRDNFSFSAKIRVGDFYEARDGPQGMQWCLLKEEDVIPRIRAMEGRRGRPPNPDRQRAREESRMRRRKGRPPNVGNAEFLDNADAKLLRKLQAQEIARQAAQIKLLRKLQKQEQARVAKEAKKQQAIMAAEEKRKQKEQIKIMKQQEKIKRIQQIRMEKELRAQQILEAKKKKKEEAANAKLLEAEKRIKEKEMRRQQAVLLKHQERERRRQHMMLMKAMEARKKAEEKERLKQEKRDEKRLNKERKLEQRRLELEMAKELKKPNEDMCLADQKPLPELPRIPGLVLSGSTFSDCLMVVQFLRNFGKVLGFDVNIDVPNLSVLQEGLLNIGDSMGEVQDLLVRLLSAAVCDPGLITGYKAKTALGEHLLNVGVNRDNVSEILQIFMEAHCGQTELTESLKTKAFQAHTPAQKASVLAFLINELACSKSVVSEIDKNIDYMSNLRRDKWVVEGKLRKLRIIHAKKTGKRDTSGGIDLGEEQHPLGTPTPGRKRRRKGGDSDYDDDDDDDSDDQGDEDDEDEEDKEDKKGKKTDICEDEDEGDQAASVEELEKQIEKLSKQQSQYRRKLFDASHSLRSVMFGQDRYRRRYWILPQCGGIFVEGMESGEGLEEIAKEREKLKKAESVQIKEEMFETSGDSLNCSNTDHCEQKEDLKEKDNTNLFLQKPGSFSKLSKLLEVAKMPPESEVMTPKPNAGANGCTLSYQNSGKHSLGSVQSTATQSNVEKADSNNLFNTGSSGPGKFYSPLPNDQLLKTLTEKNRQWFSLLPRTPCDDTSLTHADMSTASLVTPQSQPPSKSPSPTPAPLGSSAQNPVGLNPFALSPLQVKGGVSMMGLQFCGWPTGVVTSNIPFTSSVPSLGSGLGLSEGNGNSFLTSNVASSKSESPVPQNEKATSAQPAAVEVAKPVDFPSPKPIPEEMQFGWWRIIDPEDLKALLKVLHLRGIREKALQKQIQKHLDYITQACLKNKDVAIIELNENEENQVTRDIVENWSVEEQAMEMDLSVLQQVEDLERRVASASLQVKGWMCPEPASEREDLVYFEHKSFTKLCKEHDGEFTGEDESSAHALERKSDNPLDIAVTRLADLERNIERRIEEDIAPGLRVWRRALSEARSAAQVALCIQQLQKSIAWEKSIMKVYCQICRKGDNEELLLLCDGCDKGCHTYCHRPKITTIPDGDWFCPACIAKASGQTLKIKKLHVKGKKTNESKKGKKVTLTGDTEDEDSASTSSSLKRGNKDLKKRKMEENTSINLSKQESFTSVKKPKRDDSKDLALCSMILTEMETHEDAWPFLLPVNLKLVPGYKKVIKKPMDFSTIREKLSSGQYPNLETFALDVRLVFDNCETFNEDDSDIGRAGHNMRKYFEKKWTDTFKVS

[4] = target: SWI/SNF-related matrix-associated actin-dependent regulator of chromatin subfamily A member 2 (Homo sapiens) (UniProt P51531); assay: Binding affinity to SMARCA2 (unknown origin) using biotinylated histone peptide H4 as substrate at 1 uM incubated for 2 hrs by AlphaScreen assay relative to control
[5] = target: SWI/SNF-related matrix-associated actin-dependent regulator of chromatin subfamily A member 4 (Homo sapiens) (UniProt P51532); assay: Binding affinity to SMARCA4 (unknown origin) using biotinylated histone peptide H4 as substrate at 1 uM incubated for 2 hrs by AlphaScreen assay relative to control
[6] = target: CREB-binding protein (Homo sapiens) (UniProt Q92793); conditions: time 30.0 min
[7] = target: Histone acetyltransferase KAT2A (Homo sapiens) (UniProt Q92830); conditions: time 30.0 min
[8] = target: T2, Bromodomain-containing protein 9 (Homo sapiens) (UniProt Q9H8M2); conditions: time 30.0 min
T2 sequence (whole entry): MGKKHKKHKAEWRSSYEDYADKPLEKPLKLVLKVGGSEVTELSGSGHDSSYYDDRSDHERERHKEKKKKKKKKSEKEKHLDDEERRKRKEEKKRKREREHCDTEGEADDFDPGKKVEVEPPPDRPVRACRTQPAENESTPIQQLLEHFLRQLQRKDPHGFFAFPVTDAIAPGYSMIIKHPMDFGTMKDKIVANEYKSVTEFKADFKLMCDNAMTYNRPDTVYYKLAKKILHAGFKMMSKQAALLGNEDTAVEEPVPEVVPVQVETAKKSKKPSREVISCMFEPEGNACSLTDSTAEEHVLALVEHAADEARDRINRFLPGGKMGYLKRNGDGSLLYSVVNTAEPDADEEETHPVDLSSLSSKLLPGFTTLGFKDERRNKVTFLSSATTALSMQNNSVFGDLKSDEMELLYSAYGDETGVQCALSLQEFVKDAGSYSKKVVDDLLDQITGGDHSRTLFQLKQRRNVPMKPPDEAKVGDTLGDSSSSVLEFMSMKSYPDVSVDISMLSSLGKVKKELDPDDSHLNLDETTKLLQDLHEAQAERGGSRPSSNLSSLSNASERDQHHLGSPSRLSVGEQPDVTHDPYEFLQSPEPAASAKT

Peregrin (Homo sapiens) [9] = target: T1, Peregrin (Homo sapiens); conditions: time 30.0 min
[10] = target: Bromodomain adjacent to zinc finger domain protein 2B (Homo sapiens) (UniProt Q9UIF8); conditions: time 30.0 min
Homo sapiens [11] = species: Homo sapiens; conditions: time 30.0 min
Homo sapiens [12] = species: Homo sapiens; conditions: time 30.0 min; remark: listed apart in the source
MV4-11 = assay: cells; conditions: Homo sapiens, MV4-11, 48 h
Description: Antiproliferative activity against human MV4-11 cells assessed as inhibition of cell growth incubated for 48 hrs by MTT assay

MOLM-13 = assay: cells; conditions: Homo sapiens, MOLM-13, 48 h
Description: Antiproliferative activity against human MOLM-13 cells assessed as inhibition of cell growth incubated for 48 hrs by MTT assay

MM1.S = assay: cells; conditions: Homo sapiens, 48 h
Description: Antiproliferative activity against human MM1.S cells assessed as inhibition of cell growth incubated for 48 hrs by MTT assay

Row | Activity [1] [%] | Activity (Peregrin (Homo sapiens) [2]) [%] | Activity [3] [%] | Activity [4] [%] | Activity [5] [%] | ΔTm [6] [°C] | ΔTm [7] [°C] | ΔTm [8] [°C] | ΔTm (Peregrin (Homo sapiens) [9]) [°C] | ΔTm [10] [°C] | ΔTm (Homo sapiens [11]) [°C] | ΔTm (Homo sapiens [12]) [°C] | IC50 (MV4-11) [nM] | IC50 (MOLM-13) [nM] | IC50 (MM1.S) [nM] | Compound
1 | < 30 | < 30 | < 30 | < 30 | < 30 | 0 | 0 | 0 | 0 | 0 | 0 | 0 | 800 | 660 | 480 | COc1cc2c(cc1-c1c(C)n[nH]c1C)ncc1nc(C)n([C@H](C)c3ccccc3)c12
2 | 50 | < 30 | < 30 | < 30 | < 30 | 5 | 0 | 0 | 0 | 0 | 0 | 0 | 190 | 430 | 530 | COc1cc2c(cc1-c1c(C)noc1C)ncc1nc(C)n([C@H](C)c3ccccc3)c12
